Series [1] deals with Plasmodium falciparum. As to the kind of experiment: Antimalarial activity against chloroquine-resistant Plasmodium falciparum K1 infected in erythroctes incubated for 72 hrs by SYBR green 1 based spectrofluorometer. The series is classed as functional, organism-based, Erythrocyte.
Series [2] is described as follows: Cytotoxicity against mouse J774.A1 cells. The format is toxicity, cell-based.
Series [3] concerns Plasmodium falciparum. As to the kind of experiment: Antimalarial activity against chloroquine-sensitive Plasmodium falciparum 3D7 infected in erythroctes incubated for 72 hrs by SYBR green 1 based spectrofluorometer. The format is functional, organism-based, Erythrocyte.
[4] abbreviates: Plasmodium falciparum, K1, Erythrocyte, 72 h.
[5] abbreviates: Plasmodium falciparum, 3D7, Erythrocyte, 72 h.

For orientation: EC50 means the concentration at which the effect is half-maximal. For the compound `CCOC(=O)C1=C(C)NC2=C(C(=O)OC(c3ccc(OC)c(OC)c3)C2)C1c1cccc(C)c1` (stereo not drawn), the concentration for a half-maximal effect (EC50) is more than 10 µM in series [1] (setting [4]), more than 20 µM in series [2] and more than 10 µM in series [3] (setting [5]).
As to `CCOC(=O)C1=C(C)NC2=C(C(=O)OC(c3ccc(OC)c(OC)c3)C2)C1c1ccc2ccccc2c1` (stereo not drawn), the EC50 in series [1] (setting [4]) is more than 10 µM; in series [2], more than 20 µM; in series [3] (setting [5]), more than 10 µM.
For the compound `CCOC(=O)C1=C(C)NC2=C(C(=O)OC(c3ccc(OC)c(OC)c3)C2)C1c1cccc2ccccc12` (stereo not drawn), the concentration giving a half-maximal response (EC50) in series [1] (setting [4]) was more than 10 µM; in series [2], more than 20 µM; in series [3] (setting [5]) it was more than 10 µM.
Turning to `CCOC(=O)C1=C(C)NC2=C(C(=O)OC(c3ccc(OC)c(OC)c3)C2)C1c1cccc(Cl)c1` (stereo not drawn), the EC50 in series [1] (setting [4]) is more than 10 µM; in series [2], more than 20 µM; in series [3] (setting [5]), more than 10 µM.
With `CCOC(=O)C1=C(C)NC2=C(C(=O)OC(c3cccc(Cl)c3)C2)C1c1ccccc1Cl` (stereo not drawn), the EC50 is more than 6 µM in series [1] (setting [4]), more than 20 µM in series [2] and more than 6 µM in series [3] (setting [5]).
For `CCOC(=O)C1=C(C)NC2=C(C(=O)OC(c3ccc(OC)c(OC)c3)C2)C1c1ccc(-c2ccccc2)cc1` (stereo not drawn), the EC50 in series [1] (setting [4]) was more than 10 µM; in series [2], more than 20 µM; in series [3] (setting [5]) it was more than 10 µM.
Turning to `CCOC(=O)C1=C(C)NC2=C(C(=O)OC(c3ccc(OC)c(OC)c3)C2)C1c1ccc(OC)cc1` (stereo not drawn), the EC50 is more than 10 µM in series [1] (setting [4]), more than 20 µM in series [2] and more than 10 µM in series [3] (setting [5]).
For `CCOC(=O)C1=C(C)NC2=C(C(=O)OC(c3ccccc3C)C2)C1c1ccccc1Cl` (stereo not drawn), the results for the EC50 in series [1] (setting [4]), in series [2] and in series [3] (setting [5]) were more than 5 µM, more than 20 µM and more than 5 µM, respectively.
On to `CCOC(=O)C1=C(C)NC2=C(C(=O)OC(c3ccc(OC)c(OC)c3)C2)C1c1cccc(OC)c1` (stereo not drawn), for which the EC50 is more than 10 µM in series [1] (setting [4]), more than 20 µM in series [2] and more than 10 µM in series [3] (setting [5]).
On to `CCOC(=O)C1=C(C)NC2=C(C(=O)OC(c3ccc(OC)c(OC)c3)C2)C1c1ccccc1` (stereo in doubt; 1A), for which the concentration giving a half-maximal response (EC50) in series [1] (erythrocyte) is more than 7.4 µM; in series [2] it was more than 20 µM; in series [3] (erythrocyte), more than 7.4 µM.
Turning to `CCOC(=O)C1=C(C)NC2=C(C(=O)CC(c3ccc(OC)c(OC)c3)C2)C1c1ccccc1Cl` (stereo in doubt; 2A), the EC50 in series [1] (erythrocyte) was 0.141 µM; in series [2], more than 20 µM; in series [3] (erythrocyte) it was 0.165 µM.
As for `CCOC(=O)C1=C(C)NC2=C(C(=O)OC(c3ccc(OC)c(OC)c3)C2)C1c1ccccc1Cl` (stereo in doubt; 3A), the EC50 is 1.39 µM in series [1] (erythrocyte), more than 20 µM in series [2] and 2.33 µM in series [3] (erythrocyte).
In the case of `CCOC(=O)C1=C(C)NC2=C(C(=O)OC(c3ccc(OC)c(OC)c3)C2)C1c1ccc(Cl)cc1` (stereo in doubt; 5A), the results for the EC50 in series [1] (erythrocyte), in series [2] and in series [3] (erythrocyte) were 0.633 µM, more than 20 µM and 0.769 µM, respectively.
The corresponding values for `CCOC(=O)C1=C(C)NC2=C(C(=O)OC(c3ccc(OC)c(OC)c3)C2)C1c1ccccc1C` (stereo in doubt; 6A) are 2.05 µM, more than 20 µM and 1.27 µM.
As for `CCOC(=O)C1=C(C)NC2=C(C(=O)OC(c3ccc(OC)c(OC)c3)C2)C1c1ccc(C)cc1` (stereo in doubt; 8A), the concentration giving a half-maximal response (EC50) in series [1] (erythrocyte) is more than 10 µM; in series [2] it was more than 20 µM; in series [3] (erythrocyte), more than 10 µM.
With `CCOC(=O)C1=C(C)NC2=C(C(=O)OC(c3ccc(OC)c(OC)c3)C2)C1c1ccccc1OC` (stereo in doubt; 9A), the figures for the half-maximal effective concentration (EC50) in series [1] (setting [4]), in series [2] and in series [3] (erythrocyte) were more than 5.6 µM, more than 20 µM and more than 5.6 µM, respectively.
In the case of `CCOC(=O)C1=C(C)NC2=C(C(=O)OC(c3ccc(OC)c(OC)c3)C2)C1c1ccc(Br)cc1` (stereo in doubt; 12A), the figures for the concentration for a half-maximal effect (EC50) in series [1] (erythrocyte), in series [2] and in series [3] (erythrocyte) were 3.37 µM, more than 20 µM and 1.45 µM, respectively.
In the same order, the values of `CCOC(=O)C1=C(C)NC2=C(C(=O)OC(c3ccc(OC)c(OC)c3)C2)C1c1ccc([N+](=O)[O-])cc1` (stereo in doubt; 13A) are more than 10 µM, more than 20 µM and more than 10 µM.
For the compound `CCOC(=O)C1=C(C)NC2=C(C(=O)OC(c3ccccc3)C2)C1c1ccccc1Cl` (stereo in doubt; 17A), the 50% effective concentration (EC50) was more than 20 µM in series [2] and more than 9.5 µM in series [3] (setting [5]).
`CCOC(=O)C1=C(C)NC2=C(C(=O)OC(c3ccccc3Cl)C2)C1c1ccccc1Cl` (stereo in doubt; 18A): the EC50 in series [1] (setting [4]) was more than 5.5 µM; in series [2], more than 20 µM; in series [3] (setting [5]), more than 5.5 µM.
For the compound `CCOC(=O)C1=C(C)NC2=C(C(=O)OC(c3ccc(Cl)cc3)C2)C1c1ccccc1Cl` (stereo in doubt; 20A), the concentration for a half-maximal effect (EC50) in series [1] (erythrocyte) was 0.56 µM; in series [2], more than 20 µM; in series [3] (erythrocyte), 0.51 µM.
For `CCOC(=O)C1=C(C)NC2=C(C(=O)OC(c3cccc(C)c3)C2)C1c1ccccc1Cl` (stereo in doubt; 22A), the EC50 was more than 5 µM in series [1] (setting [4]), more than 20 µM in series [2] and more than 5 µM in series [3] (setting [5]).
For the compound `CCOC(=O)C1=C(C)NC2=C(C(=O)OC(c3ccc(C)cc3)C2)C1c1ccccc1Cl` (stereo in doubt; 23A), the results for the concentration for a half-maximal effect (EC50) in series [1] (erythrocyte), in series [2] and in series [3] (setting [5]) were more than 5 µM, more than 20 µM and more than 5 µM, respectively.
On to `CCOC(=O)C1=C(C)NC2=C(C(=O)OC(c3ccccc3OC)C2)C1c1ccccc1Cl` (stereo in doubt; 24A), for which the EC50 in series [1] (setting [4]) is more than 6 µM; in series [2], more than 20 µM; in series [3] (setting [5]), more than 6 µM.
`CCOC(=O)C1=C(C)NC2=C(C(=O)OC(c3cccc(OC)c3)C2)C1c1ccccc1Cl` (stereo in doubt; 25A): the EC50 is more than 7 µM in series [1] (erythrocyte), more than 20 µM in series [2] and 2.13 µM in series [3] (erythrocyte).
On to `CCOC(=O)C1=C(C)NC2=C(C(=O)OC(c3ccc(OC)cc3)C2)C1c1ccccc1Cl` (stereo in doubt; 26A), for which the EC50 in series [1] (erythrocyte) was more than 7 µM; in series [2], more than 20 µM; in series [3] (erythrocyte), more than 7 µM.
For the compound `CCOC(=O)C1=C(C)NC2=C(C(=O)OC(c3ccc(OC)cc3)C2)C1c1ccccc1Cl` (stereo in doubt; 26B), the EC50 is 1.96 µM in series [1] (erythrocyte) and 2.16 µM in series [3] (erythrocyte).
On to `COc1ccc(C2CC(=O)C3=C(C2)NC(C)=C(C(=O)O)C3c2ccccc2Cl)cc1OC` (stereo in doubt; 27A), for which the 50% effective concentration (EC50) was more than 20 µM in series [2] and more than 15 µM in series [3] (setting [5]).
For `COC(=O)C1=C(C)NC2=C(C(=O)OC(c3ccc(OC)c(OC)c3)C2)C1c1ccccc1Cl` (stereo in doubt; 28A), the concentration giving a half-maximal response (EC50) in series [1] (erythrocyte) is more than 8.5 µM; in series [2], more than 20 µM; in series [3] (erythrocyte), more than 8.5 µM.
For the compound `COC(=O)C1=C(C)NC2=C(C(=O)OC(c3ccc(OC)c(OC)c3)C2)C1c1ccccc1Cl` (stereo in doubt; 28B), the concentration giving a half-maximal response (EC50) worked out at 0.417 µM in series [1] (erythrocyte) and 0.798 µM in series [3] (erythrocyte).
As to `CCCOC(=O)C1=C(C)NC2=C(C(=O)OC(c3ccc(OC)c(OC)c3)C2)C1c1ccccc1Cl` (stereo in doubt; 29A), the concentration for a half-maximal effect (EC50) in series [1] (erythrocyte) was more than 7 µM; in series [2] it was more than 20 µM; in series [3] (erythrocyte), 2.36 µM.
With `CCCOC(=O)C1=C(C)NC2=C(C(=O)OC(c3ccc(OC)c(OC)c3)C2)C1c1ccccc1Cl` (stereo in doubt; 29B), the EC50 in series [1] (erythrocyte) worked out at 0.332 µM; in series [3] (erythrocyte), 0.458 µM.
Take `COc1ccc(C2CC3=C(C(=O)O2)C(c2ccccc2Cl)C(C(=O)OC(C)(C)C)=C(C)N3)cc1OC` (stereo in doubt; 30A): the concentration for a half-maximal effect (EC50) in series [1] (erythrocyte) was more than 13 µM; in series [2] it was more than 20 µM; in series [3] (setting [5]), more than 13 µM.
For the compound `COc1ccc(C2CC3=C(C(=O)O2)C(c2ccccc2Cl)C(C(=O)OCc2ccccc2)=C(C)N3)cc1OC` (stereo in doubt; 31A), the values for the EC50 in series [1] (setting [4]), in series [2] and in series [3] (setting [5]) were more than 11.8 µM, more than 20 µM and more than 11.8 µM, respectively.
For the compound `COc1ccc(C2CC3=C(C(=O)O2)C(c2ccccc2Cl)C(C(=O)OCc2ccccc2)=C(C)N3)cc1OC` (stereo in doubt; 31B), the EC50 in series [1] (erythrocyte) and in series [3] (erythrocyte) was more than 9.1 µM each time.
As to `CCCC1=C(C(=O)OCC)C(c2ccccc2Cl)C2=C(CC(c3ccc(OC)c(OC)c3)OC2=O)N1` (stereo in doubt; 32A), the concentration giving a half-maximal response (EC50) in series [1] (erythrocyte) was 0.418 µM; in series [2], more than 20 µM; in series [3] (erythrocyte), 0.811 µM.
For `CCOC(=O)C1=C(C(=O)OCC)C(c2ccccc2Cl)C2=C(CC(c3ccc(OC)c(OC)c3)OC2=O)N1` (stereo in doubt; 33A), the 50% effective concentration (EC50) was 0.0136 µM in series [1] (erythrocyte), more than 20 µM in series [2] and 0.0381 µM in series [3] (erythrocyte).
For `CCOC(=O)C1=C(C(=O)OCC)C(c2ccccc2Cl)C2=C(CC(c3ccc(OC)c(OC)c3)OC2=O)N1` (stereo in doubt; 33B), the half-maximal effective concentration (EC50) in series [1] (erythrocyte) amounted to 0.0776 µM; in series [3] (erythrocyte), 0.119 µM.
As to `CCOC(=O)C1=C(c2ccccc2)NC2=C(C(=O)CC(c3ccc(OC)c(OC)c3)C2)C1c1ccccc1Cl` (stereo in doubt; 35A), the EC50 in series [1] (erythrocyte) is more than 10.9 µM; in series [2], more than 20 µM; in series [3] (erythrocyte) it was 3.72 µM.
Turning to `CCOC(=O)C1=C(c2ccccc2)NC2=C(C(=O)CC(c3ccc(OC)c(OC)c3)C2)C1c1ccccc1Cl` (stereo in doubt; 35B), the concentration for a half-maximal effect (EC50) is 0.0467 µM in series [1] (erythrocyte) and 0.0405 µM in series [3] (erythrocyte).
In the same order, the values of `CCOC(=O)C1=C(C)NC2=C(C(=O)CC(c3ccc(OC)c(OC)c3)C2)C1c1ccc(Cl)cc1` (stereo in doubt; 36B) are 0.0093 µM and 0.0103 µM.
`CCCC1=C(C(=O)OCC)C(c2ccc(Cl)cc2C)C2=C(CC(c3cc(OC)ccc3OC)CC2=O)N1` (stereo in doubt; 48B): the half-maximal effective concentration (EC50) in series [1] (erythrocyte) stood at 0.0468 µM; in series [3] (erythrocyte), 0.0375 µM.
The corresponding values for `COCC1=C(C(=O)OC)C(c2ccc(Cl)cc2)C2=C(CC(c3cc(OC)c(OC)c(OC)c3)OC2=O)N1` (stereo in doubt; 56B) are 0.0423 µM and 0.029 µM.
As for `CCN(CC)CCCC(C)Nc1ccnc2cc(Cl)ccc12` (stereo not drawn) [CHLOROQUINE], the EC50 in series [1] (setting [4]) was found to be 1.36 µM; in series [3] (setting [5]) it was 0.048 µM.
In the same order, the values of `OC(c1cc(C(F)(F)F)nc2c(C(F)(F)F)cccc12)C1CCCCN1` (stereo not drawn) [MEFLOQUINE] are 0.031 µM and 0.062 µM.
The compound `COc1cc([C@@H]2c3cc4c(cc3[C@H](O)[C@H]3COC(=O)[C@H]23)OCO4)cc(OC)c1OC` [PODOFILOX] yielded a half-maximal effective concentration (EC50) in series [2] of 0.25 µM.
